Measurements published in ChEMBL document CHEMBL2203230, “Compounds from the heartwood of Caesalpinia sappan and their anti-inflammatory activity” (Bioorg Med Chem Lett, 2012).

Each compound was assayed on RAW264.7 (assay: Antiinflammatory activity in mouse RAW264.7 cells assessed as reduction in LPS-induced iNOS expression incubated for 30 mins prior to LPS-challenge measured after 18 hrs). Conditions: not given.
Assay type: functional, cell-based

Structure (SMILES)	Activity
COc1cc(O)ccc1C(=O)/C=C/c1ccc(O)cc1	Dose-dependent effect

What follows are compounds tested on RAW264.7 (assay: Antiinflammatory activity in mouse RAW264.7 cells assessed as inhibition of LPS-induced NO production after 24 hrs by Griess method). Conditions: RAW264.7, 24 h.
Assay type: functional, cell-based

IC50 [µM]	Structure (SMILES)
36.7	Oc1ccc2c(c1)OC[C@@H]1Cc3cc(O)c(O)cc3[C@H]21 [BRAZILANE]
> 50	COC1(OC)COc2cc(O)ccc2-c2cc(O)c(O)cc2C1 [PROTOSAPPANINADIMETHYLACETAL]
8.1	COc1cc(O)ccc1C(=O)/C=C/c1ccc(O)cc1
> 50	CO[C@H]1[C@]2(O)COC3=CC(=O)C=C[C@@]31c1cc(O)c(O)cc1C2 [CAESALPINJ]
> 50	COc1cc2c(cc1O)C[C@@]1(O)COc3cc(O)ccc3[C@@H]21
> 50	COc1cc(C[C@@]23COc4cc(O)ccc4[C@@H]2OC(C)(C)O3)ccc1O
> 50	CC1(C)O[C@H]2c3ccc(O)cc3OC[C@@]2(Cc2ccc(O)cc2)O1
> 50	Oc1ccc2c(c1)OC[C@]1(O)Cc3c(ccc(O)c3O)[C@H]21 [CAESALPINIAPHENOL E]
> 50	O=C(c1ccc(O)cc1O)[C@@H](O)Cc1ccc(O)cc1
> 50	COc1cc2c(cc1O)[C@@H]1c3ccc(O)cc3OC[C@]1(O)C2
43.5	Oc1ccc2c(c1)OC[C@]1(O)Cc3cc(O)c(O)cc3[C@H]21 [BRAZILIN]
> 50	COc1cc(C[C@@]2(O)COc3cc(O)ccc3[C@@H]2OC)ccc1O [CAESALPINIAPHENOL F]
